Assays:
[1] = test system: soleus muscle; test: Triglyceride and free fatty acid content (enzymatic) in isolated soleus muscle of rats fed high fat diets; assay type: cell-based, rat; settings: 1 h
Excerpt: (§1) High-fatted rats. Groups of male Wistar rats (n=21/diet) were ad libitum fed high-fat diets containing standard rat chow to which 40% (w/w) of lard, corn oil or olive oil had been added, from the time of weaning (age=21 d) until sacrifice at 50 d. Triacylglycerol from lard contains predominantly saturated fatty acids; that from corn oil […], see Table 4.
(§2) Soleus muscle tissue isolation and incuhation.Immersion and incubation media was Krebs-Henseleit buffer (KHB) containing 118.5 mM NaCl, 4.75 mM KCl, 1.18 mM MgSO4.7H2O and KH2PO4, 24.8 mM NaHCO3, 2.54 mM CaCl2 and 10 mM d-glucose. The medium was gassed continuously with 95% O2/5% CO2. […] Soleus muscles of both legs were excised keeping the tissue immersed in KHB; muscles were separated into two equal parts and transferred to the incubation flasks. At the completion of incubation the muscles were snap frozen in liquid nitrogen, and then trimmed of connective tissue and all visible fat. The muscle strips were stored at −80° C. until analysis.
(§3) Lipid extraction and chromatographic separation of fatty acids. Total lipids were extracted from muscle strips by a modified version of the method of Bligh and Dyer (Gorski et al., 1988, Mol & Cell Biochem 178:113-118; 1. Bligh et al., 1959, Can J Biochem Physiol 37: 911-917). Muscles were homogenised (Soniprep 150) in 0.4 ml of deionised water. Solvent volumes used herein were varied according to the water content of the muscle (ie muscle weight) as described (Bligh & Dyer, supra). 2 vols of methanol containing 0.005% butylated hydroxy toluene (BHT) and 1 vol chloroform were added to the muscle suspension. Homogenates were vortexed at maximum speed for 2 minutes and centrifuged at 2,500 g for 4 minutes. Supernatants were recovered and pellets re-extracted with 2 vol methanol, 1 vol chloroform and 0.8 vol 0.2 N HCl. Residues were vortexed for 2 min then centrifuged at 3,500 g for 3 min. After centrifugation the combined supernatants were diluted with 2v each of milli Q water and chloroform and the phases separated by centrifugation at 3,500 g for 4 minutes. The lower chloroform phase was recovered, neutralised by dropwise addition of 0.2 N methanolic NH4OH and evaporated down in a stream of N2. The samples were stored at −80° C. until required.
(§4) Aminopropyl phase (250 mg) was packed into 16 ml teflon columns with teflon frits placed at the top and bottom of the bonded phase. Columns were placed in a Vac Elut apparatus and washed twice with 2 ml portions of hexane (Prasad et al., 1988, J Chromato 428: 221-228; Kaluzny et al., 1985, J Lipid Res 26: 135-140). The dry lipid samples were taken up in two 0.150 ml portions of chloroform and applied to the column under atmospheric pressure. After adsorption the neutral lipids were eluted with 4 ml of chloroform-2-propanol (2:1, v/v) and the free fatty acids eluted with 4 ml of 2% acetic acid in diethyl ether. The solvent containing the free fatty acids was dried under a stream of N2.
Determination of tissue free fatty acids and triacylglycerol concentration by enzymatic analyses. Free fatty acids were separated from total lipid, evaporated under a stream of N2 and stored at −80° C. until analysis. Samples were dissolved in 50 μl of warm ethanol (35-40° C.), and 0.625 ml of a Triton X-100 (6% w/v) solution was added once the ethanol reached room temperature. The solution was stirred for 30 min, then made up to 0.825 ml with the Triton solution. Free fatty acids were quantified using a commercial method (Boehringer Mannheim) adapted for micro analyses (Cobas Mira, Roche Diagnostics), with palmitic acid standards. Triacyl glycerol levels were quantified in the total lipid fraction (Pointe Scientific) with a glycerol standard.
Total lipid was extracted and quantitated. Results are shown in FIGS. 18A NEFA and 18B triglyceride.

[2] = test system: soleus muscle; test: Individual free fatty acids by gas chromatography in soleus muscle of rats fed high fat diets; design: species or system rat; settings: 1 hour, GC
Excerpt: as §1, §2, §3, §4
Gas-liquid chromatographic analysis. Dry free fatty acid residues were processed for derivatisation of methyl esters by the boron trifluoride-methanol method (Prasad, supra). 1 ml of boron trifluoride in methanol (BF3) was added to each sample, the sample vials were heated at 70° C. for 5 minutes, shaken vigorously, and baked for a further 10 minutes. Once the samples reached room temperature 0.5 ml milli Q water was added, the sample vials shaken, 0.1 ml heptane was added and the sample shaken again. 0.05 ml of the top heptane layer was removed for GLC analysis. A Model HP5890 Plus Series 2 (Hewlett-Packard) gas chromatograph equipped with a DB-225 column was used to separate the methyl esters of the fatty acids and a Model HP 5890 GC with a Model HP 5973 MS (Hewlett-Packard) GC/MS used to confirm the identity of individual free fatty acids. […]

[3] = rats fed diet high in olive oil

Rat amylin
soleus muscle triglyceride content ([1]; diet with 40% added lard, 100 nM amylin or CGRP-1, 4.4 μM norepinephrine, control 1.14±0.16): 0.71 ± 0.07 µmol/g
soleus muscle free fatty acid content ([1]; diet with 40% added lard, 100 nM amylin or CGRP-1, 4.4 μM norepinephrine, control 43±8): 102 ± 12 nmol/g
soleus muscle triglyceride content ([1]; diet with 40% corn oil, 100 nM, control 0.89±0.06 μmol/g): 0.49±0.07 [mol/g
soleus muscle free fatty acid content ([1]; diet with 40% corn oil, 100 nM, control 35±4): 75 ± 9 nmol/g
soleus muscle triglyceride content ([1]; diet with 40% olive oil, 100 nM, control 0.83±0.1): 0.44 ± 0.4 µmol/g
soleus muscle free fatty acid content ([1]; diet with 40% olive oil, 100 nM, control 15±3): 85 ± 12 nmol/g
free fatty acid adrenic C22:4 ([2]; rats fed diet high in corn oil): 0.03 ± 0.003 nmol/g wwt
free fatty acid arachidic C20:0 ([2]; rats fed diet high in corn oil): 0.04 ± 0.002 nmol/g wwt
free fatty acid arachidonic C20:4 ([2]; rats fed diet high in corn oil): 0.04 ± 0.002 nmol/g wwt
free fatty acid cervonic C22:6 ([2]; rats fed diet high in corn oil): 0.03 ± 0.002 nmol/g wwt
free fatty acid linoleic C18:2 ([2]; rats fed diet high in corn oil): 0.18 ± 0.02 nmol/g wwt
free fatty acid linolenic C18:3 ([2]; rats fed diet high in corn oil): 0.16 ± 0.02 nmol/g wwt
free fatty acid margaric C17:0 ([2]; rats fed diet high in corn oil): 0.02 ± 0.0009 nmol/g wwt
free fatty acid myristic C14:0 ([2]; rats fed diet high in corn oil): 0.04 ± 0.006 nmol/g wwt
free fatty acid oleic C18:1 ([2]; rats fed diet high in corn oil): 0.13 ± 0.01 nmol/g wwt
free fatty acid palmitic C16:0 ([2]; rats fed diet high in corn oil): 0.12 ± 0.01 nmol/g wwt
free fatty acid palmitoleic (n-7) C16:1 ([2]; rats fed diet high in corn oil): 0.01 ± 0.0008 nmol/g wwt
free fatty acid palmitoleic (n-9) C16:1 ([2]; rats fed diet high in corn oil): 0.19 ± 0.008 nmol/g wwt
free fatty acid pentadecanoic C15:0 ([2]; rats fed diet high in corn oil): 0.05 ± 0.007 nmol/g wwt
free fatty acid stearic C18:0 ([2]; rats fed diet high in corn oil): 0.14 ± 0.008 nmol/g wwt
free fatty acid timnodonic C20:5 ([2]; rats fed diet high in corn oil): 0.05 ± 0.007 nmol/g wwt
free fatty acid vaccenic C18:1 ([2]; rats fed diet high in corn oil): 0.02 ± 0.002 nmol/g wwt
free fatty acid adrenic C22:4 ([2]; rats fed diet high in lard): 0.03 ± 0.005 nmol/g wwt
free fatty acid arachidic C20:0 ([2]; rats fed diet high in lard): 0.06 ± 0.007 nmol/g wwt
free fatty acid arachidonic C20:4 ([2]; rats fed diet high in lard): 0.01 ± 0.0005 nmol/g wwt
free fatty acid cervonic C22:6 ([2]; rats fed diet high in lard): 0.02 ± 0.002 nmol/g wwt
free fatty acid linoleic C18:2 ([2]; rats fed diet high in lard): 0.29 ± 0.004 nmol/g wwt
free fatty acid margaric C17:0 ([2]; rats fed diet high in lard): 0.08 ± 0.01 nmol/g wwt
free fatty acid myristic C14:0 ([2]; rats fed diet high in lard): 0.05 ± 0.01 nmol/g wwt
free fatty acid oleic C18:1 ([2]; rats fed diet high in lard): 0.2 ± 0.01 nmol/g wwt
free fatty acid palmitic C16:0 ([2]; rats fed diet high in lard): 0.24 ± 0.01 nmol/g wwt
free fatty acid palmitoleic (n-7) C16:1 ([2]; rats fed diet high in lard): 0.02 ± 0.0009 nmol/g wwt
free fatty acid palmitoleic (n-9) C16:1 ([2]; rats fed diet high in lard): 0.02 ± 0.003 nmol/g wwt
free fatty acid pentadecanoic C15:0 ([2]; rats fed diet high in lard): 0.12 ± 0.03 nmol/g wwt
free fatty acid stearic C18:0 ([2]; rats fed diet high in lard): 0.35 ± 0.04 nmol/g wwt
free fatty acid timnodonic C20:5 ([2]; rats fed diet high in lard): 0.02 ± 0.002 nmol/g wwt
free fatty acid vaccenic C18:1 ([2]; rats fed diet high in lard): 0.02 ± 0.002 nmol/g wwt
free fatty acid adrenic C22:4 [2, 3]: 0.05 ± 0.008 nmol/g wwt
free fatty acid arachidic C20:0 [2, 3]: 0.04 ± 0.005 nmol/g wwt
free fatty acid arachidonic C20:4 [2, 3]: 0.03 ± 0.007 nmol/g wwt
free fatty acid cervonic C22:6 [2, 3]: 0.08 ± 0.02 nmol/g wwt
free fatty acid linoleic C18:2 [2, 3]: 0.02 ± 0.004 nmol/g wwt
free fatty acid linolenic C18:3 [2, 3]: 0.01 ± 0.002 nmol/g wwt
free fatty acid margaric C17:0 [2, 3]: 0.02 ± 0.003 nmol/g wwt
free fatty acid myristic C14:0 [2, 3]: 0.01 ± 0.001 nmol/g wwt
free fatty acid oleic C18:1 [2, 3]: 0.34 ± 0.04 nmol/g wwt
free fatty acid palmitic C16:0 [2, 3]: 0.18 ± 0.01 nmol/g wwt
free fatty acid palmitoleic (n-7) C16:1 [2, 3]: 0.02 ± 0.001 nmol/g wwt
free fatty acid palmitoleic (n-9) C16:1 [2, 3]: 0.29 ± 0.03 nmol/g wwt
free fatty acid pentadecanoic C15:0 [2, 3]: 0.04 ± 0.005 nmol/g wwt
free fatty acid stearic C18:0 [2, 3]: 0.18 ± 0.02 nmol/g wwt
free fatty acid timnodonic C20:5 [2, 3]: 0.02 ± 0.003 nmol/g wwt
free fatty acid vaccenic C18:1 [2, 3]: 0.13 ± 0.02 nmol/g wwt
